The values below come from US20260306492A1 (BRISTOL-MYERS SQUIBB COMPANY, priority 2023, published 2026).

For series [1] the following is noted: cited from earlier work; for VTE prevention versus enoxaparin 40 mg once daily: orthopedic surgery, historical Phase 3; for bleeding: Phase 2 orthopedic surgery studies and with antiplatelets after an ACS.
Series [2] concerns intrinsic and final common pathways of the coagulation cascade (aPTT). As to the kind of experiment: Activated partial thromboplastin time (aPTT), AXIOMATIC-TKR Phase II. The class given is in vivo, human. To be noted: enoxaparin 40 mg QD sc. An excerpt:
As used herein, the term “activated partial thromboplastin time (aPTT)” refers to a measure of the intrinsic and final common pathways of the coagulation cascade. It represents the time, in seconds, for plasma to clot after addition of phospholipid, an intrinsic pathway activator, and calcium. […] The term ‘partial’ means phospholipid is present but no tissue factor. The normal and reference ranges vary depending on reagent and instrument combinations, particularly with the phospholipid composition.
In some embodiments, aPTT is measured as follows: Plasma samples are incubated with Actin FS aPTT assay reagent containing a standard amount of phospholipid and contact activator (ellagic acid) which activates the intrinsic coagulation pathway. After incubating for 3 minutes, calcium chloride is added to initiate coagulation and formation of a fibrin clot is measured optically. The time to clot formation (measured in seconds) is reported as the Activated Partial Thromboplastin Time (aPTT).
(§1) Assessment of the dose-response for the occurrence of any bleeding was a secondary objective.
(§2) PD analyses were performed on the PD analysis set, defined as subjects who had at least one valid blood sample drawn for PD. Descriptive statistics (N, mean, SD, median, range, CV (%) and IQ range) were used to summarize PD response at each nominal sampling time point by treatment group. Changes from baseline were summarized when applicable. PD response outside of limit of quantitation were not to be imputed and were to be noted in the summary statistics.

Series [3] concerns the target T1, Factor XI (Homo sapiens, UniProt P03951).
T1 construct: aPTT one-stage clotting with FXI-deficient plasma
As to the kind of experiment: FXI clotting activity (FXI:c), AXIOMATIC-TKR Phase II. The class given is in vivo. To be noted: enoxaparin 40 mg QD sc. The method, then:
As used herein, “Factor XI Clotting Activity” is determined utilizing an aPTT-based 1-stage clotting time assay. Serial dilutions of normal pooled plasma are mixed with FXI-depleted plasma and the clotting times are measured according to standard aPTT protocol, to establish a reference range. Subject test plasma is treated in the same way and compared with the reference plasma.
In some embodiments, the Factor XI Clotting Activity is measured as follows: Factor XI (FXI) activity is measured using a modification of the activated partial thromboplastin time (aPTT) using Actin FS (Siemens Healthcare) on the Siemens BCS®XP analyzer. […] The reference standard, at approximately 100%, is diluted by the BCS®XP analyzer in saline to generate pre-selected calibration levels of FXI. The calibration curve is plotted with FXI activity in percent (%) on the x-axis and clotting time in seconds on the y-axis. A log/lin regression curve fit is used. […] APTT reagent (Actin FS) is added and the mixture is incubated. Following incubation, calcium chloride is added to the mixture and the time to clot formation (measured optically) is compared to the time on the calibration curve. Samples are tested at the base dilution (1:10) prepared by the BCS®XP in saline.
as §1, §2

In series [4] the test system is thrombin generation. As to the kind of experiment: Thrombin Generation Assay (TGA), AXIOMATIC-TKR Phase II. The class given is in vivo, human. As to conditions: enoxaparin 40 mg QD sc.
Description: As used herein, “Thrombin Generation Assay (TGA)” is a global coagulation assay that evaluates the thrombogenic capacity of a plasma sample and has been proposed that it may better reflect prothrombotic or hemorrhagic states than conventional clotting assays. In the traditional TGA, coagulation of citrated plasma is initiated through the extrinsic pathway by adding tissue factor, phospholipids, and calcium. For this study, in the in-vitro thrombin generation assay (TGA) using human platelet-rich plasma, and a kaolin slurry was used instead to initiate coagulation through the contact activation pathway. Thrombin generation is continuously monitored through the product released by cleavage of a thrombin-specific fluorogenic substrate. The generated thrombogram is used to determine several relevant parameters, including endogenous thrombin potential, defined as the area under the thrombin concentration vs. time curve. […]
as §2

The subject of series [5] is participants undergoing primary unilateral elective TKR surgery. As to the kind of experiment: Total venous thromboembolism (VTE) in TKR patients, AXIOMATIC-TKR. The class given is in vivo, human. As to conditions: enoxaparin 40 mg once daily.
A short description of series [6]: Thorough QT (TQT) study in healthy adults. The class given is in vivo, human. As to conditions: single 400 mg dose. The method, then: Pharmacokinetic analysis was performed on the plasma concentrations of each participant.

Where two headings read alike, the source gives them in different places.

T1 sequence (P03951 19-625): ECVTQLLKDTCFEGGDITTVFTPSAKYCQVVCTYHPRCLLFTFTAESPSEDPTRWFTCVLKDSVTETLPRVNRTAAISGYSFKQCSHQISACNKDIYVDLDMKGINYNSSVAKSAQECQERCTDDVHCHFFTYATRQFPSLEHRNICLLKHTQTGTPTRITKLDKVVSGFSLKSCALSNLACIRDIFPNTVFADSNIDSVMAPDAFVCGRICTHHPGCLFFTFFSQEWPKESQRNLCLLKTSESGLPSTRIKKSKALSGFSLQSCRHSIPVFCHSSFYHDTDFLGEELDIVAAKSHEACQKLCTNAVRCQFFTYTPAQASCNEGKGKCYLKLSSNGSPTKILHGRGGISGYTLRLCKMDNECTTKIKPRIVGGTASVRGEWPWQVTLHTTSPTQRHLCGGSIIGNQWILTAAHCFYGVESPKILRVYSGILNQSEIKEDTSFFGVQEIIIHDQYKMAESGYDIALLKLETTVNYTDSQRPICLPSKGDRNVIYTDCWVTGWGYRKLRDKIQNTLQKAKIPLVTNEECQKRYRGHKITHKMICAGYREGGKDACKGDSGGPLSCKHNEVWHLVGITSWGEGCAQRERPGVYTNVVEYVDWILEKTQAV

Consider `COc1ccc(-n2nc(C(N)=O)c3c2C(=O)N(c2ccc(N4CCCCC4=O)cc2)CC3)cc1` [apixaban], for which the “VTE prevention versus enoxaparin 40 mg once daily” value in series [1] (2.5 mg twice daily) is given as “superior to enoxaparin 40 mg once daily”. Besides, in series [1], the bleeding result is reported as “dose-related bleeding”.

As for enoxaparin, the “aPTT, measured value, median” value in series [2] (Day 1 2 h) amounted to 27.5 s; in series [2] (Day 1 4 h), 27.75 s; in series [2] (Day 2 Predose), 27.4 s; in series [2] (Day 4 4 h), 26.1 s; in series [2] (Day 4 Predose), 25.8 s; in series [2] (Day 10-14), 25.9 s. In addition, the figures for the “FXI:c, % change from baseline, mean” value in series [3] (Day 1 4 h) and in series [3] (Day 10-14) were −7.24% and 36.64%, respectively. For the same molecule, the “FXI:c, % change from baseline, median” value was −7.24% in series [3] (Day 1 4 h) and 37.21% in series [3] (Day 10-14). Also, the “FXI:c, measured value, mean” value in series [3] (Day 1 4 h) came to 1.06; in series [3] (Day 10-14) it was 1.36. In addition, the “FXI:c, measured value, median” value in series [3] (Day 1 4 h) is recorded as 1.07; in series [3] (Day 10-14), 1.39. Further, the “ETP Lag Time, measured value, median” value in series [4] (Day 1 2 h) turned out to be 7.02 min; in series [4] (Day 1 4 h), 6.83 min; in series [4] (Day 2 Predose) it was 5.7 min; in series [4] (Day 4 4 h) it was 7.44 min; in series [4] (Day 4 Predose) it was 5.96 min; in series [4] (Day 10-14), 8.11 min. Also, the “ETP Peak Height, measured value, mean” value in series [4] (Day 1 2 h) came to 171.15 nmol/L; in series [4] (Day 1 4 h), 183.54 nmol/L; in series [4] (Day 2 Predose), 232.14 nmol/L; in series [4] (Day 4 4 h), 210.21 nmol/L; in series [4] (Day 4 Predose), 250.47 nmol/L; in series [4] (Day 10-14) it was 213.56 nmol/L. The “ETP Lag Time, measured value, mean” value in series [4] (Day 1 4 h) was 8.39 min; in series [4] (Day 2 Predose) it was 6.98 min; in series [4] (Day 4 4 h), 8.16 min; in series [4] (Day 4 Predose), 7.44 min; in series [4] (Day 10-14), 11.18 min. In addition, the “ETP Peak Height, measured value, median” value in series [4] (Day 1 4 h) amounted to 160.49 nmol/L; in series [4] (Day 2 Predose) it was 214.37 nmol/L; in series [4] (Day 4 4 h), 196.02 nmol/L; in series [4] (Day 4 Predose) it was 227.87 nmol/L; in series [4] (Day 10-14), 201.82 nmol/L. Further, the “total VTE rate” value in series [5] came to 21.4%.

As to `O=C(NC[C@H]1CN(c2ccc(N3CCOCC3=O)cc2)C(=O)O1)c1ccc(Cl)s1` [rivaroxaban], in series [1] (10 mg once daily), the “VTE prevention versus enoxaparin 40 mg once daily” value was “superior to enoxaparin 40 mg once daily”. For the same molecule, the bleeding result in series [1] is on record as “dose-related bleeding”.

Regarding `COc1c(N2C[C@@H]3CCCN[C@@H]3C2)c(F)cc2c(=O)c(C(=O)O)cn(C3CC3)c12` [moxifloxacin], the “assay sensitivity (positive control)” value in series [6] is “demonstrated”. Also, in series [6] (one participant), the “participants with treatment-emergent change from baseline of QTcB>60 ms” value was determined as 1.7%.
